Experimental data: PubChem BioAssay (NCI)
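Protocol summary: plate cells (96-well), add compound at 5 concentrations, incubate 48 h, interpolate endpoints linearly. At the GI50, growth is halved. TGI: total growth inhibition.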

What was measured:
Experiment in all cases: DTP human tumour cell line panel, 48 h
OVCAR-3 ovarian = tested on: OVCAR-3 ovarian
SK-MEL-2 melanoma = tested on: SK-MEL-2 melanoma
A498 renal = tested on: A498 renal
DU-145 prostate = tested on: DU-145 prostate
HOP-62 NSCLC = tested on: HOP-62 NSCLC
MDA-MB-435 = tested on: MDA-MB-435
786-0 renal = tested on: 786-0 renal
UACC-257 melanoma = tested on: UACC-257 melanoma
EKVX NSCLC = tested on: EKVX NSCLC
SF-295 CNS = tested on: SF-295 CNS
U251 CNS = tested on: U251 CNS
CAKI-1 renal = tested on: CAKI-1 renal
BT-549 breast = tested on: BT-549 breast
HCT-116 colon = tested on: HCT-116 colon
MDA-MB-231 breast = tested on: MDA-MB-231 breast
KM12 colon = tested on: KM12 colon
RPMI-8226 leukemia = tested on: RPMI-8226 leukemia
HCT-15 colon = tested on: HCT-15 colon
NCI-H460 lung = tested on: NCI-H460 lung
SW-620 colon = tested on: SW-620 colon
HS 578T breast = tested on: HS 578T breast
SN12C renal = tested on: SN12C renal
SF-268 CNS = tested on: SF-268 CNS
SK-MEL-28 melanoma = tested on: SK-MEL-28 melanoma
MCF7 breast = tested on: MCF7 breast
HCC-2998 colon = tested on: HCC-2998 colon
A549 NSCLC = tested on: A549 NSCLC
T-47D breast = tested on: T-47D breast
UACC-62 melanoma = tested on: UACC-62 melanoma
COLO 205 colon = tested on: COLO 205 colon
K-562 leukemia = tested on: K-562 leukemia
IGROV1 ovarian = tested on: IGROV1 ovarian
HT29 colon = tested on: HT29 colon
MDA-MB-468 breast = tested on: MDA-MB-468 breast
HOP-92 NSCLC = tested on: HOP-92 NSCLC
LOX IMVI melanoma = tested on: LOX IMVI melanoma
SNB-75 CNS = tested on: SNB-75 CNS
NCI-H522 lung = tested on: NCI-H522 lung
CCRF-CEM leukemia = tested on: CCRF-CEM leukemia
OVCAR-4 ovarian = tested on: OVCAR-4 ovarian
PC-3 prostate = tested on: PC-3 prostate
RXF 393 renal = tested on: RXF 393 renal
UO-31 renal = tested on: UO-31 renal
HL-60(TB) leukemia = tested on: HL-60(TB) leukemia
SK-MEL-5 melanoma = tested on: SK-MEL-5 melanoma
OVCAR-5 ovarian = tested on: OVCAR-5 ovarian
SR leukemia = tested on: SR leukemia
M14 melanoma = tested on: M14 melanoma
MOLT-4 leukemia = tested on: MOLT-4 leukemia
NCI/ADR-RES ovarian = tested on: NCI/ADR-RES ovarian
SNB-19 CNS = tested on: SNB-19 CNS
ACHN renal = tested on: ACHN renal
SF-539 CNS = tested on: SF-539 CNS
TK-10 renal = tested on: TK-10 renal
OVCAR-8 ovarian = tested on: OVCAR-8 ovarian
MALME-3M melanoma = tested on: MALME-3M melanoma
SK-OV-3 ovarian = tested on: SK-OV-3 ovarian
NCI-H226 lung = tested on: NCI-H226 lung
NCI-H23 lung = tested on: NCI-H23 lung

SMILES: Cc1ccc(-c2nc(Nc3ccccc3C(=O)O)c3ccccc3n2)cc1
- GI50 (OVCAR-3 ovarian): 13.1 µM
- TGI (OVCAR-3 ovarian): 51.3 µM
- GI50 (SK-MEL-2 melanoma): 3.65 µM
- TGI (SK-MEL-2 melanoma): 15.6 µM
- GI50 (A498 renal): 19.9 µM
- TGI (A498 renal): 58.1 µM
- GI50 (DU-145 prostate): 17.7 µM
- TGI (DU-145 prostate): > 100 µM
- GI50 (HOP-62 NSCLC): 10.8 µM
- TGI (HOP-62 NSCLC): 33.7 µM
- GI50 (MDA-MB-435): 13.9 µM
- TGI (MDA-MB-435): 87.2 µM
- GI50 (786-0 renal): 17.1 µM
- TGI (786-0 renal): > 100 µM
- GI50 (UACC-257 melanoma): 15.3 µM
- TGI (UACC-257 melanoma): 90.3 µM
- GI50 (EKVX NSCLC): 8.89 µM
- TGI (EKVX NSCLC): 56.2 µM
- GI50 (SF-295 CNS): 7.04 µM
- TGI (SF-295 CNS): 27 µM
- GI50 (U251 CNS): 5.58 µM
- TGI (U251 CNS): 35 µM
- GI50 (CAKI-1 renal): 13.8 µM
- TGI (CAKI-1 renal): > 100 µM
- GI50 (BT-549 breast): 14.6 µM
- TGI (BT-549 breast): 33.8 µM
- GI50 (HCT-116 colon): 10.1 µM
- TGI (HCT-116 colon): 36.1 µM
- GI50 (MDA-MB-231 breast): 17.2 µM
- TGI (MDA-MB-231 breast): 59.7 µM
- GI50 (KM12 colon): 13.7 µM
- TGI (KM12 colon): 81.2 µM
- GI50 (RPMI-8226 leukemia): 4.44 µM
- TGI (RPMI-8226 leukemia): > 100 µM
- GI50 (HCT-15 colon): 5.83 µM
- TGI (HCT-15 colon): 28.7 µM
- GI50 (NCI-H460 lung): 8.52 µM
- TGI (NCI-H460 lung): 27.7 µM
- GI50 (SW-620 colon): 18.2 µM
- TGI (SW-620 colon): > 100 µM
- GI50 (HS 578T breast): 10.2 µM
- TGI (HS 578T breast): 67 µM
- GI50 (SN12C renal): 11 µM
- TGI (SN12C renal): 60.4 µM
- GI50 (SF-268 CNS): 14.3 µM
- TGI (SF-268 CNS): > 100 µM
- GI50 (SK-MEL-28 melanoma): 15.9 µM
- TGI (SK-MEL-28 melanoma): 97.4 µM
- GI50 (MCF7 breast): 9.41 µM
- TGI (MCF7 breast): 89.9 µM
- GI50 (HCC-2998 colon): 12.4 µM
- TGI (HCC-2998 colon): 36 µM
- GI50 (A549 NSCLC): 8.31 µM
- TGI (A549 NSCLC): > 100 µM
- GI50 (T-47D breast): 6.29 µM
- TGI (T-47D breast): 70 µM
- GI50 (UACC-62 melanoma): 10.2 µM
- TGI (UACC-62 melanoma): 27 µM
- GI50 (COLO 205 colon): 17.8 µM
- TGI (COLO 205 colon): 41 µM
- GI50 (K-562 leukemia): 7.05 µM
- TGI (K-562 leukemia): > 100 µM
- GI50 (IGROV1 ovarian): 19.1 µM
- TGI (IGROV1 ovarian): 87.1 µM
- GI50 (HT29 colon): 17.9 µM
- TGI (HT29 colon): > 100 µM
- GI50 (MDA-MB-468 breast): 8.29 µM
- TGI (MDA-MB-468 breast): 42.3 µM
- GI50 (HOP-92 NSCLC): 2.85 µM
- TGI (HOP-92 NSCLC): 29.3 µM
- GI50 (LOX IMVI melanoma): 10.2 µM
- TGI (LOX IMVI melanoma): 31.6 µM
- GI50 (SNB-75 CNS): 1.36 µM
- TGI (SNB-75 CNS): 80.3 µM
- GI50 (NCI-H522 lung): 4.35 µM
- TGI (NCI-H522 lung): 27.1 µM
- GI50 (CCRF-CEM leukemia): 5.72 µM
- TGI (CCRF-CEM leukemia): > 100 µM
- GI50 (OVCAR-4 ovarian): 8.77 µM
- TGI (OVCAR-4 ovarian): > 100 µM
- GI50 (PC-3 prostate): 12.7 µM
- TGI (PC-3 prostate): > 100 µM
- GI50 (RXF 393 renal): 13.1 µM
- TGI (RXF 393 renal): 65.9 µM
- GI50 (UO-31 renal): 7.33 µM
- TGI (UO-31 renal): 77.9 µM
- GI50 (HL-60(TB) leukemia): 12.9 µM
- TGI (HL-60(TB) leukemia): 75.4 µM
- GI50 (SK-MEL-5 melanoma): 5.32 µM
- TGI (SK-MEL-5 melanoma): 20.3 µM
- GI50 (OVCAR-5 ovarian): 21.8 µM
- TGI (OVCAR-5 ovarian): 68.9 µM
- GI50 (SR leukemia): 10.3 µM
- TGI (SR leukemia): > 100 µM
- GI50 (M14 melanoma): 15.5 µM
- TGI (M14 melanoma): 77.4 µM
- GI50 (MOLT-4 leukemia): 11.7 µM
- TGI (MOLT-4 leukemia): > 100 µM
- GI50 (NCI/ADR-RES ovarian): 16.8 µM
- TGI (NCI/ADR-RES ovarian): 98.5 µM
- GI50 (SNB-19 CNS): 8.09 µM
- TGI (SNB-19 CNS): 81.7 µM
- GI50 (ACHN renal): 6.44 µM
- TGI (ACHN renal): 91.1 µM
- GI50 (SF-539 CNS): 11.9 µM
- TGI (SF-539 CNS): 28.3 µM
- GI50 (TK-10 renal): 29.2 µM
- TGI (TK-10 renal): > 100 µM
- GI50 (OVCAR-8 ovarian): 18.2 µM
- TGI (OVCAR-8 ovarian): > 100 µM
- GI50 (MALME-3M melanoma): 15.6 µM
- TGI (MALME-3M melanoma): 64.5 µM
- GI50 (SK-OV-3 ovarian): 11.9 µM
- TGI (SK-OV-3 ovarian): 55.3 µM
- GI50 (NCI-H226 lung): 10.2 µM
- TGI (NCI-H226 lung): 54.2 µM
- GI50 (NCI-H23 lung): 15.7 µM
- TGI (NCI-H23 lung): 44.4 µM
